Results as given in ChEMBL document CHEMBL1201862, “PubChem BioAssay data set” (2004).
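Step 1: Grow cells in 96-well plates. Step 2: Expose to compound for 48 hours at 5 concentrations. Step 3: Interpolate endpoints linearly; if unreached, use highest concentration. Here, GI50 denotes the concentration required for 50% inhibition of growth.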 Active and inactive are the calls of the source. No stated cut-off is given here; in the data, active = GI50 up to about 1.1 µM and inactive = higher.

Experiments:
Assay in all cases: NCI tumour cell line growth inhibition, 48 h
[1] = tested on: 786-0
[2] = tested on: CAKI-1
[3] = tested on: COLO 205
[4] = tested on: DLD-1
[5] = tested on: IGROV-1
[6] = tested on: KM12
[7] = tested on: MOLT-4
[8] = tested on: Malme-3M
[9] = tested on: NCI-H23
[10] = tested on: OVCAR-3
[11] = tested on: RPMI-8226
[12] = tested on: SK-MEL-28
[13] = tested on: SK-MEL-2
[14] = tested on: SK-MEL-5
[15] = tested on: SK-OV-3
[16] = tested on: SW-620
[17] = tested on: UACC-257
[18] = tested on: UACC-62
[19] = tested on: SF-539

Measured: GI50

O=C1Nc2ccc(Cl)c(I)c2C1=O
inactive: [1] 19.7 µM | [2] 21.6 µM | [3] 18.7 µM | [4] 16.9 µM | [5] 17.1 µM | [6] 26.5 µM | [7] 22.9 µM | [8] 20.2 µM | [9] 18.9 µM | [10] 21.1 µM | [11] > 10 µM | [12] 17.8 µM | [13] 18.7 µM | [14] 19.2 µM | [15] 17.9 µM | [16] 19.5 µM | [17] 17.9 µM | [18] 18.7 µM

NC(=S)N/N=C1/CN(c2ccc(Cl)c(Cl)c2)CC(=O)C1c1nc2ccccc2s1 (stereo unspecified)
inactive: [1] > 100 µM | [2] > 100 µM | [3] > 100 µM | [4] > 100 µM | [5] > 100 µM | [6] 42.9 µM | [8] > 100 µM | [9] 45.1 µM | [10] 67 µM | [11] 79.1 µM | [19] 51.5 µM | [12] 92.3 µM | [13] > 100 µM | [14] > 100 µM | [15] > 100 µM | [16] > 100 µM | [17] 35.2 µM | [18] 55.7 µM

COC(=O)CCC12CCC(=O)C1[C@@H](C(=O)OC)C[C@H]2C(=O)OC (stereo partly specified)
inactive: [1] > 100 µM | [2] > 100 µM | [3] > 100 µM | [4] > 100 µM | [5] > 100 µM | [6] > 100 µM | [7] > 100 µM | [8] > 100 µM | [9] > 100 µM | [10] > 100 µM | [11] > 100 µM | [19] > 100 µM | [13] > 100 µM | [14] > 100 µM | [15] > 100 µM | [16] > 100 µM | [17] > 100 µM | [18] > 100 µM

Oc1ccc(O)c(-n2cccn2)c1-n1cccn1
inactive: [1] > 100 µM | [2] > 100 µM | [3] 30.5 µM | [4] > 100 µM | [5] > 100 µM | [6] > 100 µM | [7] > 10 µM | [8] > 100 µM | [9] > 100 µM | [10] > 100 µM | [11] > 100 µM | [19] > 100 µM | [12] > 100 µM | [13] > 100 µM | [14] > 100 µM | [15] > 100 µM | [16] 44.6 µM | [18] 97.7 µM

CC1=CCCC(OC(N)=O)C1 (stereo unspecified)
inactive: [1] > 100 µM | [2] > 100 µM | [3] > 100 µM | [4] > 100 µM | [5] > 100 µM | [6] > 100 µM | [7] > 100 µM | [8] > 100 µM | [9] > 100 µM | [10] > 100 µM | [11] > 100 µM | [19] > 100 µM | [13] > 100 µM | [14] > 100 µM | [15] > 100 µM | [16] > 100 µM | [17] > 100 µM | [18] > 100 µM

O=C(O)CNS(=O)(=O)c1ccc(NC(=O)c2ccccc2[N+](=O)[O-])cc1
inactive: [1] > 100 µM | [2] > 100 µM | [3] > 100 µM | [4] > 100 µM | [5] > 100 µM | [7] > 100 µM | [8] > 100 µM | [9] > 100 µM | [11] > 100 µM | [19] > 100 µM | [12] > 100 µM | [13] > 100 µM | [14] > 100 µM | [15] > 100 µM | [16] > 100 µM | [17] > 100 µM | [18] > 100 µM

CCOC(=O)C[C@@]12CCCN[C@]1(C)CCc1ccccc12
inactive: [1] > 100 µM | [2] > 100 µM | [4] > 100 µM | [5] > 100 µM | [6] > 100 µM | [7] > 100 µM | [8] > 100 µM | [9] > 100 µM | [10] > 100 µM | [11] > 100 µM | [19] > 100 µM | [12] > 100 µM | [13] > 100 µM | [14] > 100 µM | [15] > 100 µM | [16] > 100 µM | [18] > 100 µM

Cc1nc2cc(Nc3ccccc3C(=O)O)ccc2s1
inactive: [1] > 100 µM | [2] > 100 µM | [3] > 100 µM | [4] > 100 µM | [5] > 100 µM | [6] > 100 µM | [7] > 100 µM | [8] > 100 µM | [9] > 100 µM | [10] > 100 µM | [11] > 100 µM | [19] > 100 µM | [12] > 100 µM | [13] > 100 µM | [14] > 100 µM | [15] > 100 µM | [16] > 100 µM | [18] > 100 µM

CS(=O)(=O)c1ccc(-c2cc(-c3ccc(S(C)(=O)=O)cc3)[n+](-c3cc(-c4ccc(S(C)(=O)=O)cc4)c([O-])c(-c4ccc(S(C)(=O)=O)cc4)c3)c(-c3ccc(S(C)(=O)=O)cc3)c2)cc1
inactive: [1] > 100 µM | [2] > 100 µM | [3] > 100 µM | [4] > 100 µM | [5] > 100 µM | [6] > 100 µM | [7] > 100 µM | [8] > 100 µM | [9] > 100 µM | [10] > 100 µM | [11] > 100 µM | [19] > 100 µM | [12] > 100 µM | [13] > 100 µM | [14] > 100 µM | [16] > 100 µM | [17] 56.5 µM | [18] > 100 µM

O=C(O)CCC(NC(=O)c1ccc(Nc2nc3ccccc3nc2-c2cccs2)cc1)C(=O)O (stereo unspecified)
inactive: [1] > 100 µM | [2] > 100 µM | [4] > 100 µM | [5] > 100 µM | [6] > 100 µM | [7] > 100 µM | [8] > 100 µM | [9] > 100 µM | [10] > 100 µM | [11] > 100 µM | [19] > 100 µM | [12] > 100 µM | [13] > 100 µM | [14] > 100 µM | [15] > 100 µM | [16] > 100 µM | [17] > 100 µM | [18] > 100 µM

O=C(NCc1ccccc1)c1cc2cc(O)c(O)cc2cn1
inactive: [1] 22.9 µM | [2] 35.6 µM | [3] 34.8 µM | [4] 36.7 µM | [5] 30.3 µM | [6] 31.9 µM | [8] 34.6 µM | [9] 14 µM | [10] 34.1 µM | [11] 24.6 µM | [19] 29 µM | [12] 35.7 µM | [13] 46.3 µM | [14] 22.8 µM | [15] 40.8 µM | [16] 42.6 µM | [17] 26.9 µM | [18] 16.6 µM
